Source: US11415513B2, “Method for determining the degree of sensitivity of a strain of fungus to an antifungal agent” (UNIVERSITE GRENOBLE ALPES, priority 2015, dated 2022)
≈ marks a conversion by molar mass, not a printed value. Where two headings read alike, the source gives them in different places. Starred links: 1 amine or outer side, 2 acyl side, 3 side chain; linkers in the order of their positions; H or OH if unused. Positions of bridges follow the written chain, without caps; N, C: chain ends. Non-standard residues stand in square brackets, D forms with d. Residues, ends and D or L forms follow the SMILES beside them. *: point of attachment. hTyr(3S-OH,4S-OH,3'-OSO3H) = N[C@H](C(=O)O)[C@H](O)[C@@H](O)c1ccc(O)c(OS(=O)(=O)O)c1; Orn(4R-OH,5R-OH) = O=C([C@H](C[C@@H](O)[C@@H](O)N[*:3])N[*:1])[*:2]; Pro(3S-OH,4S-Me) = C[C@H]1CN[C@H](C(=O)O)[C@H]1O; X1 = CCCCCOc1ccc(-c2cc(-c3ccc(C(=O)*)cc3)no2)cc1; Gln(3R-OH) = NC(=O)C[C@@H](O)[C@H](N)C(=O)O; Hyp = O=C(O)[C@@H]1C[C@@H](O)CN1

Columns and labels:
[1] = test system: strain ATCC®22019 of C. parapsilosis; assay: Etest method (MIC); type: cell-based, Candida parapsilosis; conditions: for MIC: Lodderomyces parapsilosis, read-out: MIC (Etest method)
Description: (§1) The Etest® method is a commercial test for determining the sensitivity of a strain, most frequently used routinely in clinical mycology laboratories.
(§2) The Etest® tests were performed according to the manufacturer's instructions. After distributing a standardised Mac Farland 0.5 inoculum (equivalent of […]) over plates of RPMI medium, said plates were incubated for 24 h at 35° C., with the exception of C. glabrata in which case the incubation was extended to 48 h so as to be able to determine the minimum inhibitory concentration (MIC).
(§3) The results of the MICs obtained were interpreted in accordance with the tables of the CLSI (Clinical and Laboratory Standards Institute) and/or of EUCAST (European Committee on Antimicrobial Susceptibility Testing) (Arendrup M C, Cuenca-Estrella M, Lass-Flörl C, Hope W W (2014) Breakpoints for antifungal agents: an update from EUCAST focussing on echinocandins against Candida spp and triazoles against Aspergillus spp. Drug Resist Updat 16(6):81-95. doi:10.1016/j.drup.2014.01.001) (cf. Table 2 taken from Maubon D, Garnaud C, Calandra T, et al. (2014) Resistance of Candida spp. to antifungal drugs in the ICU: where are we now? Intensive Care Med. doi: 10.1007/s00134-014-3404-7) which list the clinical thresholds (CBPs) for the most common species of yeast of the genus Candida as a function of different antifungal agents, or according to the table of epidemiological thresholds (ECVs).

[2] = test system: strain ATCC®7349 of C. tropicalis; assay: Etest method (MIC); type: cell-based, Candida tropicalis; conditions: for MIC: Candida tropicalis, read-out: MIC (Etest method)
Description: as §1, §2, §3

[3] = test system: strain ATCC®22019 of C. parapsilosis; assay: Sensitivity test by HCA microscopy (chitin level, Calcofluor White; cell count); type: cell-based, Candida parapsilosis; conditions: SC medium; for decrease of the number of cells / increase of the chitin level in the wall of the cells: vs cells in the absence of antifungal agent
Description: (§4) The strains of Candida were incubated beforehand at 30° C. overnight in a yeast extract medium—peptone dextrose (YPD) (1% bacto peptone, 0.5% yeast extract, 2% glucose, 1.5% agar).
(§5) Yeast colonies were then removed from YPD medium plates and suspended in a 0.9% NaCl saline solution, in which the cell concentration was estimated by optical microscopy using Kova counting slides.
(§6) A dilution was performed to obtain 15 ml of an inoculum at 3×10^6 CFU/ml, in a synthetic complete (SC) medium at pH 7 (2% glucose, 0.5% ammonium sulfate, 0.17% nitrogen-containing yeast base, 0.2% synthetic complete mixture, and 10% HEPES 1.5M pH 7.2) for C. albicans, C. parapsilosis, C. tropicalis and C. krusei, and in a solution of RPMI 1640 pH 7.3 (10% HEPES 1M pH 7.2) for C. glabrata, so as to reduce the formation of septa and clusters.
(§7) 1 ml of inoculum was then added to 2 ml of antifungal solution prepared in an SC or RPMI medium depending on the species of fungus, so as to obtain a final concentration of yeast of 10^6 CFU/ml and the desired concentration of antifungal agent according to table 1.
(§8) After homogenisation, the cultures were placed at 30° C. at 200 rpm, with the exception of cultures of C. glabrata, which were placed at 35° C. at 200 rpm, and incubated for a period of 6.5 h or 24 h.
(§9) After incubation, 100 μl of the culture of fungi obtained above were transferred in triplicate to 96-well plates, and 2.5 μl of Calcofluor White (CFW) were added to each well so as to mark the chitin of the cell walls of the yeasts.
(§10) A step of acquiring images by automated fluorescence microscopy (ScanR screening station, Olympus), using a 40× lens and a CFW filter, made it possible to obtain 30 images per well so as to capture enough cells to provide statistically significant data. These images were analysed by software (ScanR analysis software, Olympus). Firstly, the background noise was processed so as to improve the contrast between the fluorescence of the yeasts and background noise. A pixel threshold was then defined. Segmentation of the fluorescent elements present in each of the acquired images was then performed using an algorithm predefined in the software, making it possible to determine the limit of each element on the basis of the fluorescence intensity of said element. A size parameter was then applied to select the yeasts and eliminate the aggregates and the fluorescent debris.
(§11) Each element then corresponding to a yeast, it was thus possible, on the basis of these elements predefined beforehand, to define the fluorescence intensity for each of the yeasts, this intensity being directly correlated with the chitin content of their wall.
(§12) On the basis of said defined elements, it was also possible to automatically count the yeasts,
The strain ATCC®22019 of C. parapsilosis was cultivated as described in paragraph I of the Examples section so as to obtain an inoculum at 3×10^6 CFU/ml in 15 ml of SC medium.
(§13) 2 ml of fluconazole solution prepared in the SC medium were then added to 1 ml of this inoculum so as to obtain a final concentration of yeast of 10^6 CFU/ml and of 16 μg/ml in fluconazole.
(§14) The inoculum was treated in the same way so as to obtain cultures of 10^6 CFU/ml and the following concentrations of fluconazole: 0.015 μg/ml, 0.031 μg/ml, 0.062 μg/ml, 0.125 μg/ml, 0.25 μg/ml, 0.5 μg/ml, 1 μg/ml, 2 μg/ml, 4 μg/ml, 8 μg/ml, 16 μg/ml.
After incubation for 6.5 h at 30° C. with stirring at 200 rpm, 100 μl of each culture were removed and transferred to 96-well plates. This procedure was performed in triplicate, and 2.5 μl of CFW were then added to each well.
(§15) The chitin level in the cell wall of the yeasts was then measured by […] analysis (HCA) microscopy, as described in paragraph II of the Examples section, in triplicate for each condition of concentration of fluconazole and without fluconazole. […]

[4] = test system: strain ATCC®7349 of C. tropicalis; assay: as above; type: cell-based, Candida tropicalis; conditions: SC medium; for decrease of the number of cells / increase of the chitin level in the wall of the cells: vs cells in the absence of antifungal agent; for increase of the chitin level in the wall of the cells: concentration gradient of Table 1
Description: as §4, §5, §6, §7, §8, §9, §10, §11, §12
The strain ATCC®7349 of C. tropicalis was cultivated as described in paragraph I of the Examples section so as to obtain an inoculum at 3×10^6 CFU/ml in 15 ml of SC medium.
as §13, §14
After incubation for 24 h at 30° C. with stirring at 200 rpm, 100 μl of each culture were removed and transferred to 96-well plates. This procedure was performed in triplicate, and 2.5 μl of CFW were then added to each well.
as §15

[5] = ATCC22019, RPMI medium plates, 24 h at 35° C.
[6] = RPMI medium plates, 24 h at 35° C.
[7] = ATCC7349, RPMI medium plates, 24 h at 35° C.
[8] = 6.5 h at 30° C., concentration gradient of Table 1

Compound | MIC [1, 5] | phenotype by Etest MIC, interpretation by the EUCAST and/or CLSI tables [1, 6] | MIC [2, 7] | phenotype by Etest MIC, interpretation by the EUCAST and/or CLSI tables [2, 6] | phenotype of the strain with respect to the antifungal agent (HCA) ([3]; 6.5 h at 30° C.) | decrease of the number of cells ([3]; 6.5 h at 30° C.) | increase of the chitin level in the wall of the cells [3, 8] | phenotype of the strain with respect to the antifungal agent (HCA) ([4]; 24 h at 30° C.) | decrease of the number of cells ([4]; 24 h at 30° C.) | increase of the chitin level in the wall of the cells ([4]; 24 h at 30° C.) | MIC ([1]; ATCC22019, 24 h) | MIC ([2]; ATCC7349, 24 h) | phenotype of the strain with respect to the antifungal agent (HCA) ([3]; 24 h at 30° C.) | decrease of the number of cells ([3]; 24 h at 30° C.) | increase of the chitin level in the wall of the cells ([3]; 24 h at 30° C., concentration gradient up to 1 μg/ml) | phenotype of the strain with respect to the antifungal agent (HCA) ([4]; 6.5 h at 30° C.) | decrease of the number of cells ([4]; 6.5 h at 30° C.) | increase of the chitin level in the wall of the cells ([4]; 6.5 h at 30° C.)
OC(Cn1cncn1)(Cn1cncn1)c1ccc(F)cc1F [fluconazole] | 1 µg/mL (≈ 3.27 µM) | sensitive | 0.38 µg/mL (≈ 1.24 µM) | sensitive | sensitive (an increase in the chitin level greater than or equal to 20% is observed compared to the chitin level of a population of cells of said fungus in the absence of antifungal agent, as well as a decrease in the number of cells of at least 0.3 log) | at least 0.3 log | greater than or equal to 20% | sensitive (an increase in the chitin level greater than or equal to 20% is observed compared to the chitin level of a population of cells of said fungus in the absence of antifungal agent, as well as a decrease in the number of cells of at least 0.3 log) | at least 0.3 log | greater than or equal to 20% | – | – | – | – | – | – | – | –
CCCCCOc1ccc(-c2cc(-c3ccc(C(=O)N[C@H]4C[C@@H](O)[C@@H](O)NC(=O)[C@@H]5[C@@H](O)[C@@H](C)CN5C(=O)[C@H]([C@H](O)CC(N)=O)NC(=O)[C@H]([C@H](O)[C@@H](O)c5ccc(O)c(OS(=O)(=O)O)c5)NC(=O)[C@@H]5C[C@@H](O)CN5C(=O)[C@H]([C@@H](C)O)NC4=O)cc3)no2)cc1 [micafungin] (X1-[Orn(4R-OH,5R-OH)]T[Hyp][hTyr(3S-OH,4S-OH,3'-OSO3H)][Gln(3R-OH)][Pro(3S-OH,4S-Me)]; lactam 1-C) | – | sensitive | – | sensitive | – | – | – | – | – | – | 0.19 µg/mL (≈ 0.15 µM) | 0.016 µg/mL (≈ 0.0126 µM) | sensitive (an increase in the chitin level greater than or equal to 20% is observed compared to the chitin level of a population of cells of said fungus in the absence of antifungal agent, as well as a decrease in the number of cells of at least 0.3 log) | at least 0.3 log | greater than or equal to 20% | sensitive (an increase in the chitin level greater than or equal to 20% is observed compared to the chitin level of a population of cells of said fungus in the absence of antifungal agent, as well as a decrease in the number of cells of at least 0.3 log) | at least 0.3 log | greater than or equal to 20%
C[C@@H](c1ncncc1F)[C@](O)(Cn1cncn1)c1ccc(F)cc1F [voriconazole] | 0.023 µg/mL (≈ 0.0658 µM) | sensitive | 0.023 µg/mL (≈ 0.0658 µM) | sensitive | sensitive (an increase in the chitin level greater than or equal to 20% is observed compared to the chitin level of a population of cells of said fungus in the absence of antifungal agent, as well as a decrease in the number of cells of at least 0.3 log) | at least 0.3 log | greater than or equal to 20% | – | – | – | – | – | – | – | – | sensitive (an increase in the chitin level greater than or equal to 20% is observed compared to the chitin level of a population of cells of said fungus in the absence of antifungal agent, as well as a decrease in the number of cells of at least 0.3 log) | at least 0.3 log | greater than or equal to 20%
